Counter-ions that a name gives are not always drawn. Like-named read-outs stand apart in the source and are kept apart here. Blank lines part the entries; values can stand above or below the compound they belong to.
Key:
[1] = Solubility of fingolimod in patch adhesive; format: physicochemical
[2] = Transdermal flux test of fingolimod HCl gel and solutions (Franz cell); format: in vitro ADME, human; conditions: during the first 8 hours of the experiments
Method: Human cadaver skin was used and epidermal layers (stratum corneum and epidermis) were separated from the full-thickness skin as skin membrane and placed on top of the Franz cell. The donor compartment chamber and receptor sides of the Franz cell were clamped together. A receptor solution containing 0.9% sodium chloride was added to the cell. Solution samples or gel samples were inserted into the donor compartment chamber on top of the epidermis/stratum corneum. The cells were kept at a temperature of 33° C. during the entire experiment. Samples of the receptor solution were taken at regular intervals and the active agent concentration was measured by HPLC. The removed receptor solution was replaced with fresh solution to maintain the sink conditions. The flux was calculated from the slope of the cumulative amounts of the drug in the receiver compartment versus time.

[3] = Transdermal flux test of topical patch formulations (Franz cell); format: in vitro ADME
Source text: Human cadaver skin was used and epidermal layers (stratum corneum and epidermis) were separated from the full-thickness skin as skin membrane. Samples were die-cut with an arch punch to a final diameter of about 2.0 cm^2. The release liner was removed and the drug delivery system was placed on top of the epidermis/stratum corneum with the drug adhesive layer facing the stratum corneum. Gentle pressure was applied to effect good contact between the adhesive layer and stratum corneum. The donor and receptor sides of the Franz cell were clamped together and the receptor solution containing 0.9% sodium chloride, 1% Tween 80 and 0.01% Gentamicin was added to the Franz cell. The cells were kept at 33° C. for the duration of the experiment. Samples of the receptor solution were taken at regular intervals and the active agent concentration was measured by HPLC. The removed receptor solution was replaced with fresh solution to maintain the sink conditions. The flux was calculated from the slope of cumulative amounts of the drug in the receiver compartment versus time plot.

[4] = orally administered fingolimod HCl; cited from earlier work

solubility of fingolimod in adhesive ([1]; Duro-Tak 87-9301 adhesive): less than 1% | solubility of fingolimod in the adhesive ([1]; PIB adhesive): less than 1% | solubility of fingolimod in the adhesive ([1]; acrylate polymer adhesive Duro-Tak 900A): less than 1% | detection of fingolimod in the receptor solutions [2]: not detected
SMILES: CCCCCCCCc1ccc(CCC(N)(CO)CO)cc1 [fingolimod, 2-amino-2-[2-(4-octylphenyl)ethyl]propane-1,3-diol]

SMILES: CCCCCCCCCCCCOC(=O)C(C)O (centres unmarked) [LL, Lauryl Lactate]
effect on the fingolimod flux [3]: enhancement effect

SMILES: CCCCCCCCc1ccc(CCC(N)(CO)CO)cc1 [fingolimod HCl, fingolimod hydrochloride]
peak to trough fluctuations, non-phosphorylated fingolimod [4]: ≤ 20% | peak to trough fluctuations, phosphorylated (active) form of fingolimod [4]: ≤ 45%

SMILES: CCCCCCCC/C=C\CCCCCCCC(=O)OCC(O)CO (centres unmarked) [GMO, Glyceryl monooleate]
effect on the fingolimod flux ([3]; excipient in fingolimod base patches in Duro-Tak 9301, human cadaver skin, FIG. 3): enhancement effect

— US10188616B2, “Topical sphingosine-1-phosphate receptor agonist formulations and methods of using the same” (Teikoku Pharma USA, Inc., priority 2013, dated 2019)
